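Cultured in 96-well plates, cells were exposed to test compound for 48 hours across five concentrations. GI50 = concentration required for 50% inhibition of growth.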 Calls of active or inactive are those of the source. Cut-off read from the data, not from the text of the source: active = GI50 up to about 1.1 µM and inactive = higher.
How the values were obtained:
Assay in all cases: inhibition of tumour cell growth, NCI panel, 48 h
[1] = test system: 786-0
[2] = test system: A498
[3] = test system: A549
[4] = test system: ACHN
[5] = test system: CAKI-1
[6] = test system: CCRF-CEM
[7] = test system: DLD-1
[8] = test system: EKVX
[9] = test system: HCC 2998
[10] = test system: HCT-116
[11] = test system: HCT-15
[12] = test system: HL-60
[13] = test system: HOP-18
[14] = test system: HOP-62
[15] = test system: HOP-92
[16] = test system: HT-29
[17] = test system: K562
[18] = test system: KM-20L2
[19] = test system: KM12
[20] = test system: LOX IMVI
[21] = test system: LXFL 529
[22] = test system: M14
[23] = test system: M19-MEL
[24] = test system: MOLT-4
[25] = test system: Malme-3M
[26] = test system: NCI-H226
[27] = test system: NCI-H23
[28] = test system: NCI-H460
[29] = test system: NCI-H522
[30] = test system: OVCAR-4
[31] = test system: OVCAR-8
[32] = test system: SF-268
[33] = test system: SF-295
[34] = test system: SF-539
[35] = test system: SK-MEL-28
[36] = test system: SK-MEL-2
[37] = test system: SK-OV-3
[38] = test system: SN12C
[39] = test system: SNB-19
[40] = test system: SNB-75
[41] = test system: SNB-78
[42] = test system: SR
[43] = test system: SW-620
[44] = test system: TK-10
[45] = test system: U-251
[46] = test system: UACC-257
[47] = test system: UACC-62
[48] = test system: UO-31
[49] = test system: COLO 205
[50] = test system: DMS-114
[51] = test system: DMS-273
[52] = test system: IGROV-1
[53] = test system: OVCAR-3
[54] = test system: OVCAR-5
[55] = test system: RPMI-8226
[56] = test system: RXF 393
[57] = test system: SK-MEL-5

SMILES: C/C(=N\Nc1nnc(S)n1N)c1c(O)cc(C)oc1=O
- GI50 [1]: > 100 µM (inactive)
- GI50 [2]: > 100 µM (inactive)
- GI50 [3]: > 100 µM (inactive)
- GI50 [4]: > 100 µM (inactive)
- GI50 [5]: > 100 µM (inactive)
- GI50 [6]: > 100 µM (inactive)
- GI50 [7]: > 100 µM (inactive)
- GI50 [8]: > 100 µM (inactive)
- GI50 [9]: > 100 µM (inactive)
- GI50 [10]: > 100 µM (inactive)
- GI50 [11]: > 100 µM
- GI50 [12]: > 100 µM (inactive)
- GI50 [13]: > 100 µM (inactive)
- GI50 [14]: > 100 µM (inactive)
- GI50 [15]: > 100 µM (inactive)
- GI50 [16]: > 100 µM (inactive)
- GI50 [17]: > 100 µM (inactive)
- GI50 [18]: > 100 µM (inactive)
- GI50 [19]: > 100 µM (inactive)
- GI50 [20]: > 100 µM (inactive)
- GI50 [21]: > 100 µM (inactive)
- GI50 [22]: > 100 µM (inactive)
- GI50 [23]: > 100 µM (inactive)
- GI50 [24]: > 100 µM (inactive)
- GI50 [25]: > 100 µM (inactive)
- GI50 [26]: > 100 µM (inactive)
- GI50 [27]: > 100 µM (inactive)
- GI50 [28]: > 100 µM (inactive)
- GI50 [29]: > 100 µM (inactive)
- GI50 [30]: 99.3 µM (inactive)
- GI50 [31]: > 100 µM (inactive)
- GI50 [32]: > 100 µM (inactive)
- GI50 [33]: > 100 µM (inactive)
- GI50 [34]: > 100 µM (inactive)
- GI50 [35]: > 100 µM (inactive)
- GI50 [36]: > 100 µM (inactive)
- GI50 [37]: > 100 µM (inactive)
- GI50 [38]: > 100 µM (inactive)
- GI50 [39]: > 100 µM (inactive)
- GI50 [40]: > 100 µM (inactive)
- GI50 [41]: > 100 µM (inactive)
- GI50 [42]: > 100 µM (inactive)
- GI50 [43]: > 100 µM (inactive)
- GI50 [44]: > 100 µM (inactive)
- GI50 [45]: > 100 µM (inactive)
- GI50 [46]: > 100 µM (inactive)
- GI50 [47]: > 100 µM (inactive)
- GI50 [48]: > 100 µM (inactive)

SMILES: COc1cc([C@@H]2c3cc4c(cc3[C@@H](NCc3cccc(F)c3)C3COC(=O)[C@@H]32)OCO4)cc(OC)c1O (stereo partly drawn)
- GI50 [1]: 2.29 µM (inactive)
- GI50 [2]: 2.68 µM (inactive)
- GI50 [3]: 1.17 µM (inactive)
- GI50 [4]: 1.67 µM (inactive)
- GI50 [5]: 6.85 µM (inactive)
- GI50 [6]: 1.27 µM (inactive)
- GI50 [49]: 12.9 µM (inactive)
- GI50 [7]: 9.71 µM (inactive)
- GI50 [50]: 6.11 µM (inactive)
- GI50 [51]: 2.21 µM (inactive)
- GI50 [8]: 12.4 µM (inactive)
- GI50 [9]: 9.77 µM (inactive)
- GI50 [10]: 4.5 µM (inactive)
- GI50 [11]: 3.57 µM
- GI50 [12]: 1.19 µM (inactive)
- GI50 [13]: > 65 µM (inactive)
- GI50 [14]: 1.51 µM (inactive)
- GI50 [15]: 7.53 µM (inactive)
- GI50 [16]: 8.61 µM (inactive)
- GI50 [52]: 3.18 µM (inactive)
- GI50 [17]: 6.49 µM (inactive)
- GI50 [18]: 6.64 µM (inactive)
- GI50 [19]: 7.01 µM (inactive)
- GI50 [20]: 3.58 µM (inactive)
- GI50 [21]: 13.4 µM (inactive)
- GI50 [22]: 4.9 µM (inactive)
- GI50 [24]: 0.364 µM (active)
- GI50 [25]: 4.69 µM (inactive)
- GI50 [26]: 1.03 µM (active)
- GI50 [27]: 1.95 µM (inactive)
- GI50 [28]: 0.37 µM (active)
- GI50 [29]: 6.93 µM (inactive)
- GI50 [53]: 12.2 µM (inactive)
- GI50 [30]: 30.6 µM (inactive)
- GI50 [54]: 13.9 µM (inactive)
- GI50 [31]: 6.53 µM (inactive)
- GI50 [55]: 2.29 µM (inactive)
- GI50 [56]: 8.85 µM (inactive)
- GI50 [32]: 5.92 µM (inactive)
- GI50 [33]: 2.24 µM (inactive)
- GI50 [34]: 2.52 µM (inactive)
- GI50 [35]: 8.61 µM (inactive)
- GI50 [36]: 12.9 µM (inactive)
- GI50 [57]: 7.13 µM (inactive)
- GI50 [37]: 4.19 µM (inactive)
- GI50 [38]: 2.14 µM (inactive)
- GI50 [39]: 2.81 µM (inactive)
- GI50 [40]: 1.95 µM (inactive)
- GI50 [41]: 15.3 µM (inactive)
- GI50 [43]: 5.06 µM (inactive)
- GI50 [44]: 9.68 µM (inactive)
- GI50 [45]: 1.23 µM (inactive)
- GI50 [46]: 10.8 µM (inactive)
- GI50 [47]: 2.47 µM (inactive)
- GI50 [48]: 5.57 µM (inactive)
